Data on eight compounds can be found in ChEMBL document CHEMBL1139135, “Orally active 4-amino-5-diarylurea-furo[2,3-d]pyrimidine derivatives as anti-angiogenic agent inhibiting VEGFR2 and Tie-2” (Bioorg Med Chem Lett, 2007).

Each structure is given as a SMILES string. pIC50: −log10 of the molar value. Active and inactive are the calls of the source. The calls are words filed in the database; no cut-off is given here.

For series [1], the target named is T1, Angiopoietin-1 receptor (Homo sapiens, UniProt Q02763). Kind of series: Inhibition of human Tie2 by HTRF method. In general terms: Time-resolved FRET reads energy transfer from a long-lived donor to a nearby acceptor.
Target sequence in this assay (Q02763 whole entry): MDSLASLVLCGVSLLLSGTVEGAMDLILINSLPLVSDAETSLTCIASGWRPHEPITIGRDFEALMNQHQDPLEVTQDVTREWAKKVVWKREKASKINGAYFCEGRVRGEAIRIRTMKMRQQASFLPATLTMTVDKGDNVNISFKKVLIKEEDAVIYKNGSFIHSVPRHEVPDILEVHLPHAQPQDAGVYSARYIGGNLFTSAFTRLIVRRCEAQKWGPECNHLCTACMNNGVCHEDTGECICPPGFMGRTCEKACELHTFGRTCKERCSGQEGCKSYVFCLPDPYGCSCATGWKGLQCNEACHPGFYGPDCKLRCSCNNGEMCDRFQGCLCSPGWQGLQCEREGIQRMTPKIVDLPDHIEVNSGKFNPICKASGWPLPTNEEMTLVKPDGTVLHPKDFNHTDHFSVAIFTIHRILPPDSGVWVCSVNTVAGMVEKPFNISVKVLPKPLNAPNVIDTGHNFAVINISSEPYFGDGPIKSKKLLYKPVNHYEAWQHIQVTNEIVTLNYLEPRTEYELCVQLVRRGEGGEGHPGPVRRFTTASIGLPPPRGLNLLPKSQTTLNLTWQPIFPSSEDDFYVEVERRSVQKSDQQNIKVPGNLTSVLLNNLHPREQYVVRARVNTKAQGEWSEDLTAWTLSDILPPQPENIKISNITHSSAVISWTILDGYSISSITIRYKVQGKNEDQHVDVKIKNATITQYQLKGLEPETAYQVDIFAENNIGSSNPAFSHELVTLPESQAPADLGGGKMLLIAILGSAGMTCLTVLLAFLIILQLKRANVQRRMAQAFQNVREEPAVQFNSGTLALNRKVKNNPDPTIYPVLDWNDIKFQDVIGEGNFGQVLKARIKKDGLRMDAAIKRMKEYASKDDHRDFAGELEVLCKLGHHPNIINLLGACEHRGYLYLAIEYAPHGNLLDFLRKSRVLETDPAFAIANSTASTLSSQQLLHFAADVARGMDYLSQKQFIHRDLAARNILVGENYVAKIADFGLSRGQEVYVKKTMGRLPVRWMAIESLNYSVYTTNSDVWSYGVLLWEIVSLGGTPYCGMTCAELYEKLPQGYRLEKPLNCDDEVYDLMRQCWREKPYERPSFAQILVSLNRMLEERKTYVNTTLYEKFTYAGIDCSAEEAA
For series [2], the target named is Vascular endothelial growth factor receptor 2 (Homo sapiens, UniProt P35968). Kind of series: Inhibition of human VEGFR2 by HTRF method.
Series [3] concerns HT-29. The experiment in a line: Inhibition of tumor growth in human HT29 cells xenografted in orally dosed nude CD1 mouse. It counts as functional, organism-based. For orientation: In xenograft studies the graft and the host belong to different species.
In series [4] the target is Proto-oncogene tyrosine-protein kinase Src (Homo sapiens, UniProt P12931). Kind of series: Inhibition of human SRC.
Series [5] addresses Cyclin-dependent kinase 2 (Homo sapiens, UniProt P24941). Kind of series: Inhibition of human CDK2.
The target of series [6] is Macrophage colony-stimulating factor 1 receptor (Homo sapiens, UniProt P07333). The experiment in a line: Inhibition of human cFMS.
Series [7] has as its system HT-29. The experiment in a line: Cytotoxicity against human HT29 cells after 3 days. Conditions: HT-29, 72 h.
Series [8] concerns the target Glycogen synthase kinase-3 (Homo sapiens, UniProt P49840+P49841). Kind of series: Inhibition of human GSK3. It is filed as protein assay.
Series [9] concerns HT-29. The experiment in a line: Antiangiogenic activity against human HT29 cells xenografted in nude CD1 mouse assessed as decrease in blood vessel density at 10 mg/kg, po. It counts as functional. Further details: scale not given: the % may be the effect or the level left.
Series [10] can be described thus: AUC (0 to t) in CD1 mouse at 10.7 mg/kg, po. As to conditions: plasma. It is filed as ADME, organism-based. Details: dose 10.7 mg/kg, route oral.
Series [11] concerns HT-29. The experiment in a line: Antiangiogenic activity against human HT29 cells xenografted in nude CD1 mouse. It counts as functional.
Series [12] is described as follows: Tmax in CD1 mouse at 10.7 mg/kg, po. Further details: dose 10.7 mg/kg, route oral. Conditions: in vivo. It counts as ADME, organism-based.
The target in series [13] is T1, Angiopoietin-1 receptor. Kind of series: Inhibition of c-fms/Tie2 chimeric receptor transfected in 3T3 cell assessed as autophosphorylation activity. It counts as cell-based.
Target sequence in this assay (Q02763 23-1124 limits assumed): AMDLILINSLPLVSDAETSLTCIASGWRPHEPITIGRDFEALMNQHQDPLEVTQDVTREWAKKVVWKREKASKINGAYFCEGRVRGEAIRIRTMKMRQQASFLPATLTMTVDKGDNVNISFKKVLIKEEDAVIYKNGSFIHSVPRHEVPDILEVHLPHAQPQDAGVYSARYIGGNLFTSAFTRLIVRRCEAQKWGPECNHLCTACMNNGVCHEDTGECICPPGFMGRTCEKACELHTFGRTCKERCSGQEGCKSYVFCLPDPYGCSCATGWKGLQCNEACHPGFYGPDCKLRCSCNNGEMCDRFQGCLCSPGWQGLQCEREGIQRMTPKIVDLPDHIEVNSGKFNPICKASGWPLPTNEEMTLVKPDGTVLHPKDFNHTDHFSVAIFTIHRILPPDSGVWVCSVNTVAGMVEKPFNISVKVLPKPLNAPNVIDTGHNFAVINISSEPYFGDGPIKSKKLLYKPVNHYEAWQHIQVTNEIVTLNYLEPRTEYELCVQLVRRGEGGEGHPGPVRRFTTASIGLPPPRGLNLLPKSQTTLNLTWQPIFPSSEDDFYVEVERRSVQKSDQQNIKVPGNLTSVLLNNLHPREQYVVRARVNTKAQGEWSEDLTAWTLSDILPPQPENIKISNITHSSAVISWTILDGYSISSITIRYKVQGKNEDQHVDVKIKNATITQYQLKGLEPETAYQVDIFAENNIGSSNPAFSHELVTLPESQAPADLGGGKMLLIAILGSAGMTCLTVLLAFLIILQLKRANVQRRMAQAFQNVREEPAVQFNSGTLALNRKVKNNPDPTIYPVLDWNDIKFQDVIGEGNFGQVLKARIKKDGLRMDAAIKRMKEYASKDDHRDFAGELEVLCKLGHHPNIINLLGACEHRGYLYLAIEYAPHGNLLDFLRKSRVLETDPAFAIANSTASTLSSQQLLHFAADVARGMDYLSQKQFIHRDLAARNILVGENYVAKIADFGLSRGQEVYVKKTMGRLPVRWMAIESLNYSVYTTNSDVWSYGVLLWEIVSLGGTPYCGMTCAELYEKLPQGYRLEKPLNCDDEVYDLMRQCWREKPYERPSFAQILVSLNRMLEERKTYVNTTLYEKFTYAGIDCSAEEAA
Series [14] concerns the target RAC-gamma serine/threonine-protein kinase (Homo sapiens, UniProt Q9Y243). The experiment in a line: Inhibition of human Akt3.
Series [15] deals with Platelet-derived growth factor receptor (Homo sapiens, UniProt P09619+P16234). Kind of series: Inhibition of human PDGFR. It is filed as protein-complex assay.
For series [16], the system named is HT-29. Kind of series: Antiangiogenic activity against human HT29 cells xenografted in nude CD1 mouse assessed as decrease in blood vessel density at 30 mg/kg, po. Details: scale not given: the % may be the effect or the level left. It is filed as functional.
For series [17], the target named is Vascular endothelial growth factor receptor 3 (Homo sapiens, UniProt P35916). The experiment in a line: Inhibition of human VGFR3.
The target of series [18] is Vascular endothelial growth factor receptor 1 (Homo sapiens, UniProt P17948). The experiment in a line: Inhibition of human VEGFR1.
In series [19] the test system is HFF. Kind of series: Cytotoxicity against human HFF cells after 3 days. As to conditions: 72 h.
The target of series [20] is Epidermal growth factor receptor (Homo sapiens, UniProt P00533). Kind of series: Inhibition of human EGFR.
Series [21] relates to HUVEC. Kind of series: Growth inhibition of VEGF-stimulated human HUVEC cells.
Series [22] concerns HT-29. Kind of series: Antiangiogenic activity against human HT29 cells xenografted in nude CD1 mouse assessed as decrease in blood vessel density at 3 mg/kg, po. It counts as functional. Details: scale not given: the % may be the effect or the level left.
A short description of series [23]: Cmax in CD1 mouse at 10.7 mg/kg, po. It counts as ADME, organism-based. Details: dose 10.7 mg/kg, route oral. As to conditions: in vivo.

Sequence of Vascular endothelial growth factor receptor 2 (P35968 whole entry, looked up): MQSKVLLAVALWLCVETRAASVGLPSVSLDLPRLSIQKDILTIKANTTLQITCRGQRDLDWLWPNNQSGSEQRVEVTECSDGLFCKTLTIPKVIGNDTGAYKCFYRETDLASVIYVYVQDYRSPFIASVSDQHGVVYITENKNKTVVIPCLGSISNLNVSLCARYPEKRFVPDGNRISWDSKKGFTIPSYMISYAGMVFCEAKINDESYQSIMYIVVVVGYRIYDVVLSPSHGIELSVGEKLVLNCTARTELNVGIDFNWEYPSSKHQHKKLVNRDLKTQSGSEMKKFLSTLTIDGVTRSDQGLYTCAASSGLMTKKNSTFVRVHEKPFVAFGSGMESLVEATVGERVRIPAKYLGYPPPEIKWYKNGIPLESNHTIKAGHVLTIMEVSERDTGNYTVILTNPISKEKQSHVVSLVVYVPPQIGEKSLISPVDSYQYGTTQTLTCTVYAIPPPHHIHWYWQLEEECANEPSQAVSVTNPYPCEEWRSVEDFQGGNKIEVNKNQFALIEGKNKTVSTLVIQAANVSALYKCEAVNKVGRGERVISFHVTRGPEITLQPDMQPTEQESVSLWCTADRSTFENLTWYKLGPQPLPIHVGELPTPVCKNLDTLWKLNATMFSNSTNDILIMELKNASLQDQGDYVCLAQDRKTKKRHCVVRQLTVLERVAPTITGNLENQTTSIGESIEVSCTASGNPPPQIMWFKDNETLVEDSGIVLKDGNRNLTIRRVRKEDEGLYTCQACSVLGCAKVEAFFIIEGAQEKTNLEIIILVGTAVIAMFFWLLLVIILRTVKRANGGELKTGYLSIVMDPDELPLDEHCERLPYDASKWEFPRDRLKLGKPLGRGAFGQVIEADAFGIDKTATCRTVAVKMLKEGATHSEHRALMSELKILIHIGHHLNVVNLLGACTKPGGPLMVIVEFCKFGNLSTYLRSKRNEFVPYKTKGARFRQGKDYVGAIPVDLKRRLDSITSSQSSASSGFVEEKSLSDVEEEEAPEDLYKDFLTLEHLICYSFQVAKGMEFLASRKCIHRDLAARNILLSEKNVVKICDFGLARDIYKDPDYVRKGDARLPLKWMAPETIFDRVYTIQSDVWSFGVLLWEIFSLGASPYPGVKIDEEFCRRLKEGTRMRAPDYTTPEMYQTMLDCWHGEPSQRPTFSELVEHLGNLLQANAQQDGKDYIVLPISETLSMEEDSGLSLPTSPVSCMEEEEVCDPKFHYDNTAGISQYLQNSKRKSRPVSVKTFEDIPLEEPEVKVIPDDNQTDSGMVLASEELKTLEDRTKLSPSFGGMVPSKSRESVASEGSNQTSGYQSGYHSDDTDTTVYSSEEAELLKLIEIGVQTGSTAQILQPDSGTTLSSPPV
Sequence of Macrophage colony-stimulating factor 1 receptor (P07333 whole entry): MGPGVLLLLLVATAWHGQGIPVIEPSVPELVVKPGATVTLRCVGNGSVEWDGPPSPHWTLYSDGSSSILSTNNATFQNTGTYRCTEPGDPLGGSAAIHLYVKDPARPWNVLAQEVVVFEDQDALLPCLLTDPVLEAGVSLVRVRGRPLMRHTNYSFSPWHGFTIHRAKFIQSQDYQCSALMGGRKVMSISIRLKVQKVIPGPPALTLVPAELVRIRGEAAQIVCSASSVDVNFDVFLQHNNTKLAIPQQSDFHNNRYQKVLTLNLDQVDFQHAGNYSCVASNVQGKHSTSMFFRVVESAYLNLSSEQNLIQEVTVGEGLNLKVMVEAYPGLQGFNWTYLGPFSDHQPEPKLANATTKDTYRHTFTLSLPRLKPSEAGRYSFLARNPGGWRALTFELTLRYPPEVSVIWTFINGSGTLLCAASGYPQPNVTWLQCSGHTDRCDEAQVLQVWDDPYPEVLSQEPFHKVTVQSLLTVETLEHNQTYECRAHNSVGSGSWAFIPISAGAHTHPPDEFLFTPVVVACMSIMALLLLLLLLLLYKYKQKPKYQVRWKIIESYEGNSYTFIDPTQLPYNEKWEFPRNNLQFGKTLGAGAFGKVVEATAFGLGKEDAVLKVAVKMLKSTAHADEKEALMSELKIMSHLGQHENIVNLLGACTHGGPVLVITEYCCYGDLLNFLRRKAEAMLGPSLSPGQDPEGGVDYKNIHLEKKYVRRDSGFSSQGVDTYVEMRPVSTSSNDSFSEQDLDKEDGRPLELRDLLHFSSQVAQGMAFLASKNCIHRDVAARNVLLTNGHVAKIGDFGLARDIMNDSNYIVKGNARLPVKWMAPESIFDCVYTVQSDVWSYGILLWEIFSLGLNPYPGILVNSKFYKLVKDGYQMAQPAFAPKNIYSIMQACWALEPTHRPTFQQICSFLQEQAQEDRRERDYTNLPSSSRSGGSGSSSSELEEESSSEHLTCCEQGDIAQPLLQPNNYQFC
Sequence of Proto-oncogene tyrosine-protein kinase Src (P12931 2-536 limits assumed): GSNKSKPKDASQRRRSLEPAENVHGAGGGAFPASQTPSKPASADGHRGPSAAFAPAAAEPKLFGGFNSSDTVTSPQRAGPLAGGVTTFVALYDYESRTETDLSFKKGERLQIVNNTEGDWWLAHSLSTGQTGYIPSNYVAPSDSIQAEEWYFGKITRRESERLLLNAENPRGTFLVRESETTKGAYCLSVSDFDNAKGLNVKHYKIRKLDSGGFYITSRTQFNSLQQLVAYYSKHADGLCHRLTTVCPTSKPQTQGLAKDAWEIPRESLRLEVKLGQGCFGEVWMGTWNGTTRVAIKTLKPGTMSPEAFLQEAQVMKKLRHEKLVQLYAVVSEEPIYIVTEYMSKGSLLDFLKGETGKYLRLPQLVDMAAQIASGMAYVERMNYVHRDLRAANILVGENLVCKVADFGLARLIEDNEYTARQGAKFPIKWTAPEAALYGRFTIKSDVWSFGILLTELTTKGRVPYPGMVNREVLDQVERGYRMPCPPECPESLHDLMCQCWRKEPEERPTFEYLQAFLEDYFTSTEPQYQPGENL

Turning to `Nc1ncnc2occ(-c3ccc(NC(=O)Nc4cccc(Oc5ccccc5)c4)cc3)c12`, the pIC50 in series [1] was 6.39; in [2], 5.76.

Regarding `Nc1ncnc2occ(-c3ccc(NC(=O)Nc4cccc5ccccc45)cc3)c12`, the results for the pIC50 in series [1] and in series [2] were 6.74 and 6.35, respectively.

Take `Nc1ncnc2occ(-c3ccc(NC(=O)Nc4cccc(C(F)(F)F)c4)cc3)c12` [GW795493X]: the pIC50 in series [1] was 7.99; in series [2] it was 8.15.

Compound `Nc1ncnc2occ(-c3ccc(NC(=O)Nc4cc(C(F)(F)F)cc(C(F)(F)F)c4)cc3)c12` [GW795486X] gave a pIC50 in series [1] of 6.42.

On to `Nc1ncnc2occ(-c3ccc(NC(=O)Nc4cc(C(F)(F)F)ccc4F)cc3)c12` [GW770249X], for which the Activity result in series [3] is “Dose-dependent effect”; in series [9], 35.6%; in series [16], 62.9%; in series [22] it was 24.3%. The pIC50 in series [4] was 6.27; in series [1], 7.87; in [5] it was 4.75; in series [6], 7.41; in series [2], 8.11; in series [7], 5.29. Further, the pIC50 in series [13] is 7.74; in series [14], 4.76; in series [15], 7.56; in series [17], 8.12; in series [18] it was 8.07; in [19] it was 5.60. In addition, the results for the pIC50 in [20] and in series [21] were 5.00 and 8.59, respectively. Moreover, the “Log IC50” value in series [8] is listed as -5.66. In series [10], the AUC(0-t) is 20000 ng·h/mL. The result in [11] was Active. Also, in series [12], the time of peak concentration (Tmax) is 2 h. The Cmax in [23] was determined as 2720 ng/mL.

Regarding `Nc1ncnc2occ(-c3ccc(NC(=O)Nc4ccc5ccccc5c4)cc3)c12`, the pIC50 in [1] was 7.09; in [2] it was 7.62.

As for `COc1ccc(F)c(NC(=O)Nc2ccc(-c3coc4ncnc(N)c34)cc2)c1`, the pIC50 was 6.65 in series [1] and 6.48 in series [2].

With `Nc1ncnc2occ(-c3ccc(NC(=O)Nc4cc(C(F)(F)F)ccc4Cl)cc3)c12`, the pIC50 in series [1] is 6.69; in [2] it was 6.73.

In general, pIC50 refers to the negative decadic logarithm of the IC50, by convention in mol/L. What is called AUC(0-t) is the area under the concentration-time curve up to a stated or last time point. Usually Tmax stands for the time from dosing to the highest level. The Cmax is the highest concentration seen after dosing.
